The source made the active and inactive calls. How the calls were made is not given here.

For the series, the system named is CCRIS mutagenicity, Ames/micronucleus/aberration tests. Description: CCRIS mutagenicity studies.
The mark [1] stands for this setting: Test System: AMES SALMONELLA TYPHIMURIUM, Strain/Indicator: TA98, Metabolic Activation: NONE, Method: STANDARD PLATE.
The mark [2] stands for this setting: Test System: AMES SALMONELLA TYPHIMURIUM, Strain/Indicator: TA100, Metabolic Activation: NONE, Method: STANDARD PLATE.

For the compound `CN1CC[C@@]2(C)c3cc(O)ccc3N(C)[C@@H]12`, the mutagenic call was “inactive; negative” (Test System: AMES SALMONELLA TYPHIMURIUM, Strain/Indicator: TA97, Metabolic Activation: NONE, Method: STANDARD PLATE); “inactive; negative” (Test System: AMES SALMONELLA TYPHIMURIUM, Strain/Indicator: TA97, Metabolic Activation: S-9, Method: STANDARD PLATE); “inactive; negative” under setting [1]; “inactive; negative” (Test System: AMES SALMONELLA TYPHIMURIUM, Strain/Indicator: TA98, Metabolic Activation: S-9, Method: STANDARD PLATE); “inactive; negative” under setting [2]; “inactive; negative” (Test System: AMES SALMONELLA TYPHIMURIUM, Strain/Indicator: TA100, Metabolic Activation: S-9, Method: STANDARD PLATE). In addition, the mutagenic call (Test System: AMES SALMONELLA TYPHIMURIUM, Strain/Indicator: TA104, Metabolic Activation: NONE, Method: STANDARD PLATE) is “inactive; negative”; the mutagenic call (Test System: AMES SALMONELLA TYPHIMURIUM, Strain/Indicator: TA104, Metabolic Activation: S-9, Method: STANDARD PLATE) is “inactive; negative”; the mutagenic call (Test System: AMES SALMONELLA TYPHIMURIUM, Strain/Indicator: TA1535, Metabolic Activation: NONE, Method: STANDARD PLATE) was “inactive; negative”; the mutagenic call (Test System: AMES SALMONELLA TYPHIMURIUM, Strain/Indicator: TA1535, Metabolic Activation: S-9, Method: STANDARD PLATE) is “inactive; negative”; the mutagenic call (Test System: AMES SALMONELLA TYPHIMURIUM, Strain/Indicator: TA1537, Metabolic Activation: NONE, Method: STANDARD PLATE) was “inactive; negative”; the mutagenic call (Test System: AMES SALMONELLA TYPHIMURIUM, Strain/Indicator: TA1537, Metabolic Activation: S-9, Method: STANDARD PLATE) was “inactive; negative”. The mutagenic call (Test System: AMES SALMONELLA TYPHIMURIUM, Strain/Indicator: TA1538, Metabolic Activation: S-9, Method: STANDARD PLATE) is “inactive; negative”.

As to `CC(=O)OCC(COC(C)=O)OC(C)=O`, the mutagenic call reads like this: (Test System: Ames Salmonella typhimurium, Strain/Indicator: TA98, Metabolic Activation: None, Method: Preincubation) “inactive; negative”; (Test System: Ames Salmonella typhimurium, Strain/Indicator: TA98, Metabolic Activation: Rat, Liver, S9, Sodium phenobarbital and 5,6-benzoflavone, Method: Preincubation) “inactive; negative”; (Test System: Ames Salmonella typhimurium, Strain/Indicator: TA100, Metabolic Activation: None, Method: Preincubation) “inactive; negative”; (Test System: Ames Salmonella typhimurium, Strain/Indicator: TA100, Metabolic Activation: Rat, Liver, S9, Sodium phenobarbital and 5,6-benzoflavone, Method: Preincubation) “inactive; negative”; (Test System: Ames Salmonella typhimurium, Strain/Indicator: TA1535, Metabolic Activation: None, Method: Preincubation) “inactive; negative”; (Test System: Ames Salmonella typhimurium, Strain/Indicator: TA1535, Metabolic Activation: Rat, Liver, S9, Sodium phenobarbital and 5,6-benzoflavone, Method: Preincubation) “inactive; negative”. The mutagenic call was “inactive; negative” (Test System: Ames Salmonella typhimurium, Strain/Indicator: TA1537, Metabolic Activation: None, Method: Preincubation); “inactive; negative” (Test System: Ames Salmonella typhimurium, Strain/Indicator: TA1537, Metabolic Activation: Rat, Liver, S9, Sodium phenobarbital and 5,6-benzoflavone, Method: Preincubation); “inactive; negative” (Test System: E. coli, Strain/Indicator: WP2uvrA/pKM101, Metabolic Activation: None, Method: Preincubation); “inactive; negative” (Test System: E. coli, Strain/Indicator: WP2uvrA/pKM101, Metabolic Activation: Rat, Liver, S9, Sodium phenobarbital and 5,6-benzoflavone, Method: Preincubation).

`O=S(=O)(O)N(S(=O)(=O)O)S(=O)(=O)O`: the mutagenic call was “inactive; negative” (Test System: AMES SALMONELLA TYPHIMURIUM, Strain/Indicator: G46, Metabolic Activation: RAT, LIVER, S-9, AROCLOR 1254, Method: STANDARD PLATE) and “inactive; negative” (Test System: AMES SALMONELLA TYPHIMURIUM, Strain/Indicator: TA100, Metabolic Activation: RAT, LIVER, S-9, AROCLOR 1254, Method: STANDARD PLATE).

For `CC(C)c1c(N)ccc2ccccc12`, the mutagenic call under setting [1] was “inactive; negative”; the mutagenic call (Test System: AMES SALMONELLA TYPHIMURIUM, Strain/Indicator: TA98, Metabolic Activation: RAT LIVER S-9, AROCLOR, Method: STANDARD PLATE) is “active; positive”; the mutagenic call under setting [2] was “inactive; negative”; the mutagenic call (Test System: AMES SALMONELLA TYPHIMURIUM, Strain/Indicator: TA100, Metabolic Activation: RAT LIVER S-9, AROCLOR, Method: STANDARD PLATE) is “active; positive”.

Values taken from PubChem BioAssay AID1259407 (Chemical Carcinogenesis Research Information System (CCRIS), 2018).
